Laboratory results from US12478616B2, “PI3K inhibitors and uses thereof” (Sloan-Kettering Institute for Cancer Research, priority 2018, dated 2025).
Where two headings read alike, the source gives them in different places. Marks after values point to notes of the source that are not given here. Each block holds one molecule with its values, some of them ahead of it.

Legend:
PI3Kα = PI3Kα (Homo sapiens (Human), UniProt P42336); experiment: PI3Kα kinase (biochemical) assay
[1] = test system: B16F10 melanoma lung metastases; conditions: FiDOX 1, 5 and 30 mg/kg; free doxorubicin 6 mg/kg; cited from earlier work
[2] = Mouse pharmacokinetics, cassette dosed free drug; format: in vivo; conditions: for MRTiv / BA / MRTpo / AUC / concentration at 5 min / clearance / Vd / Cmax / Tmax: cassette; for concentration at 5 min: read-out: C5min; for clearance: read-out: Cltotal (converted); for Vd: read-out: VDss
Source text: (§1) Mouse PK data for Compound (14) (cassette dosing) for free drug (i.e., not nanoformulated) is tabulated in Table 2 using amorphous material. […] The corresponding rat PK data is tabulated in Table 3, where the results are consistent with mouse PK data.

[3] = Rat pharmacokinetics, cassette dosed free Compound (14); format: in vivo
Source text: as §1

[4] = Fucoidan nanoparticle formulation, drug load and particle size; format: physicochemical; conditions: Table 1
Description: FIG. 13. Generation of Compound (14) Nanoparticles [Fi(Compound (14))]. An aliquot of 0.1 mL of Compound (14) dissolved in dimethyl sulfoxide (25 mg/mL) was added drop-wise ([…]) to a 0.6 mL aqueous polysaccharide solution (15 mg/mL) containing IR820 (2.5 mg/mL) and 0.05 mM sodium bicarbonate. An aliquot of 0.1 mL of 8-arm PEG-amine dissolved in water (Creative Peg Works, 20 kD, 5 mg/mL) was added drop-wise to the mixture followed by centrifugation (20,000 g, 30 min). The nanoparticle pellet was re-suspended in 1 mL of sterile PBS. The suspension was sonicated for 10 s with a probe tip ultrasonicator at 40% intensity (Sonics inc). The nanoparticles were lyophilized in a 5% saline/sucrose solution.
Nanoformulated Compound (14) [Fi(Compound (14))] was typically prepared as illustrated in FIG. 13 by adding a DMSO solution dropwise to an aqueous polysaccharide solution containing the near-IR dye IR820. This was followed by the addition of an aqueous solution containing 20 kD, 8-arm PEG-amine, centrifugation and ultra-sonication yielding nanoparticles (<200 nm) with good batch consistency (FIG. 14). […]
Importantly, each of these 3 new derivatives shown in Table 8 were successfully encapsulated in fucoidan polysaccharide nanoparticles. Following nanoformulation, the drug loading in the nanoparticle for each analog was determined.

PI3K = PI3K cellular assays; format: cell-based; design: key: Inactive (−); Low (+); Intermediate (++); High (+++); conditions: for PI3K cellular activity: Table 1
Cal-33 xenografts = conditions: Fi(BYL719) 25 mg/kg twice a week; free BYL719 7 mg/kg/day (50 mg/kg/week); cited from earlier work
[5] = 60 consecutive days; BYL719 50 mg/kg/day, Fi(BYL719) 50 mg/kg/week; cited from earlier work
[6] = test system: H22 patient-derived xenografts; conditions: Fi(BYL719) 25 mg/kg twice a week; free BYL719 7 mg/kg/day (50 mg/kg/week); cited from earlier work
[7] = healthy mice, single dose, BYL719 25 or 50 mg/kg, Fi(BYL719) 25 mg/kg, cited from earlier work
[8] = cited from earlier work
[9] = test system: S6 ribosomal protein (S6) phosphorylation; conditions: single administration; free BYL719 oral, Fi(BYL719) 25 mg/kg; up to 24 hours; cited from earlier work
[10] = rat, BYL719 dose 3.4 mg/kg IV, cited from earlier work
ERK phosphorylation = conditions: cited from earlier work
[11] = Table 6, proline-modified inhibitors, read-out: PI3Kα (IC50)
[12] = Table 4, pyridine-modified inhibitors, read-out: PI3Kα (IC50)
[13] = Table 5, pyrone inhibitors, read-out: PI3Kα (IC50)
[14] = IV 0.1 mg/kg, 1 mL/kg (10-in-One)
[15] = in vivo, IV 0.1 mg/kg, 1 mL/kg (10-in-One), read-out: AUCiv
[16] = in vivo, IV 0.1 mg/kg, 1 mL/kg (10-in-One)
[17] = in vivo, PO 1 mg/kg, 5 mL/kg (5-in-One)
[18] = in vivo, PO 1 mg/kg, 5 mL/kg (5-in-One), read-out: AUCpo

PI3Kα, sequence (P42336 whole entry): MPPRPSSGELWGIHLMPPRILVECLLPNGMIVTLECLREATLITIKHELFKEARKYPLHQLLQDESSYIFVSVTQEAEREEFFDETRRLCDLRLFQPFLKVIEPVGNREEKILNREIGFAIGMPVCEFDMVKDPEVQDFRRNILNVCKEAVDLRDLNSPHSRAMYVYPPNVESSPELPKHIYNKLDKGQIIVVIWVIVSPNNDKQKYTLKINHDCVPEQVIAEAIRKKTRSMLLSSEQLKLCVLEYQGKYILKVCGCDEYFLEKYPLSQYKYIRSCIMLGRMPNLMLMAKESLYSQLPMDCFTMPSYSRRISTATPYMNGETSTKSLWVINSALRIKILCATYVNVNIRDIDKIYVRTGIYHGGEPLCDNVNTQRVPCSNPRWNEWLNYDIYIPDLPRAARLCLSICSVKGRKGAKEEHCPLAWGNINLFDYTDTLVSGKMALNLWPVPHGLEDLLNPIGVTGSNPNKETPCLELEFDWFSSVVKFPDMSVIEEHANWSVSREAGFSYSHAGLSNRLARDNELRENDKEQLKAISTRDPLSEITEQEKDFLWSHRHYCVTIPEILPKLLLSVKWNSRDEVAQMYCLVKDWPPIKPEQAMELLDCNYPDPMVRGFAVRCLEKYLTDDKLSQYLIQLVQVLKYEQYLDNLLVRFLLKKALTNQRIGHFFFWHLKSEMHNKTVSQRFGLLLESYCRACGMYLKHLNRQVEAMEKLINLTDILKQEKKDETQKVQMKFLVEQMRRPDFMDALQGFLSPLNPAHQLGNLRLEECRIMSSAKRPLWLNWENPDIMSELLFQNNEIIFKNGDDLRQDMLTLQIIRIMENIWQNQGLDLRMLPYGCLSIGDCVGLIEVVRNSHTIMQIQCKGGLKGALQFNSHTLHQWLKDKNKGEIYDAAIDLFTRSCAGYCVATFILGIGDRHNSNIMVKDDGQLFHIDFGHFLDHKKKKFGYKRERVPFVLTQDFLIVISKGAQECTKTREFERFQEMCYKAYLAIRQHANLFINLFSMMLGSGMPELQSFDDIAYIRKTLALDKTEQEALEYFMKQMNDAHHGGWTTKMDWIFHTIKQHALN
PI3Kα, sequence (P27986 whole entry partner): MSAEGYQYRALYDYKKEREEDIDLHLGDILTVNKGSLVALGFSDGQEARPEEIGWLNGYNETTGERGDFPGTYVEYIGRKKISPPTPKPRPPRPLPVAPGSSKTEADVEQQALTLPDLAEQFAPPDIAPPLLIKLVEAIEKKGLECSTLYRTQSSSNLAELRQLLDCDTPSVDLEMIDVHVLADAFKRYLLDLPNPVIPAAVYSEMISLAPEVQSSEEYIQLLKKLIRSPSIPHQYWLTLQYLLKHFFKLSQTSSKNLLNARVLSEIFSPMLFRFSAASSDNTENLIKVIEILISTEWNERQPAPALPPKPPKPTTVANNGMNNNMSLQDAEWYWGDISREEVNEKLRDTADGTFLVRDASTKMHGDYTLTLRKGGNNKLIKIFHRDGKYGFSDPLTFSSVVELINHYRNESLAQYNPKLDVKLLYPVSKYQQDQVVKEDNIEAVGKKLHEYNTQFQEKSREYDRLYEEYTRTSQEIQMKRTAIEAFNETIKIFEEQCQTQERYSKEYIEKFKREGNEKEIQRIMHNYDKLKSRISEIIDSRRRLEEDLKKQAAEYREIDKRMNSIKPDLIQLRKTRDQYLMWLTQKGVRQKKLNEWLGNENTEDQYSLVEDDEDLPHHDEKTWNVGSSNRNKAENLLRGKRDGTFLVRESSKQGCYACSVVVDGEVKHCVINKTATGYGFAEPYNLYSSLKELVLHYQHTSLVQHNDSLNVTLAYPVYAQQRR

PI3Kα inhibition in biochemical assay (in words) (PI3Kα): good intrinsic PI3Kα potency | IC50 (PI3Kα; [11]): < 0.1 µM
SMILES: CCOC(=O)C1CC(C(N)=O)N(C(=O)Nc2nc(C)c(-c3ccnc(C(C)(C)C(F)(F)F)c3)s2)C1 (centres unmarked) [Compound (21)]

IC50 (PI3Kα; [12]): < 0.1 µM
SMILES: CCOC(=O)CC(C)(C)c1cc(-c2sc(NC(=O)N3CCC[C@H]3C(N)=O)nc2C)ccn1 [Compound (2)]

SMILES: COc1cccc2c1C(=O)c1c(O)c3c(c(O)c1C2=O)C[C@@](O)(C(=O)CO)C[C@@H]3O[C@H]1C[C@H](N)[C@H](O)[C@H](C)O1 [doxorubicin]
tumor burden and survival after a single injection [1]: did not have a significant effect

IC50 (PI3Kα; [13]): < 0.1 µM
SMILES: Cc1nc(NC(=O)N2CCC[C@H]2C(N)=O)sc1-c1cc(C(C)C)oc(=O)c1 [Compound (13)]

IC50 (PI3Kα; [12]): < 0.1 µM
SMILES: COC(=O)C(C)(C)c1cc(-c2sc(NC(=O)N3CCC[C@H]3C(N)=O)nc2C)ccn1 [Compound (8)]

PI3Kα inhibition in biochemical assay (in words) (PI3Kα): active | IC50 (PI3Kα; [13]): < 0.1 µM
SMILES: CCOC(=O)[C@@H]1CCN(C(=O)Nc2nc(C)c(-c3cc(C(C)(C)C(F)(F)F)oc(=O)c3)s2)[C@@H]1C(N)=O [Compound (10)]

PI3Kα inhibition in biochemical assay (in words) (PI3Kα): active | IC50 (PI3Kα; [13]): < 0.1 µM
SMILES: CCOC(=O)[C@H]1C[C@@H](C(N)=O)N(C(=O)Nc2nc(C)c(-c3cc(C(C)(C)C(F)(F)F)oc(=O)c3)s2)C1 [Compound (12)]

IC50 (PI3Kα; [12]): < 0.1 µM
SMILES: CCOC(=O)C(C)c1cc(-c2sc(NC(=O)N3CCC[C@H]3C(N)=O)nc2C)ccn1 (mixture of isomers) [Compound (6)]

IC50 (PI3Kα; [12]): < 0.1 µM
SMILES: Cc1nc(NC(=O)N2CCC[C@H]2C(N)=O)sc1-c1ccnc(C(C)(C)C(=O)OC(C)OC(=O)OC2CCCCC2)c1 (some centres unmarked) [Compound (3)]

IC50 (PI3Kα; [12]): < 0.1 µM
SMILES: Cc1nc(NC(=O)N2CCC[C@H]2C(N)=O)sc1-c1ccnc(C(C)(C)C(=O)O)c1 [Compound (7)]

IC50 (PI3Kα; [12]): < 0.1 µM
SMILES: Cc1nc(NC(=O)N2CCC[C@H]2C(N)=O)sc1-c1ccnc(C(C)(C)C(=O)OCc2oc(=O)oc2C)c1 [Compound (4)]

mean residence time (in words) ([2]; cassette dosing, free drug): short mean residence time | oral bioavailability (in words) ([2]; cassette dosing, free drug): modest oral bioavailability | total clearance (in words) ([2]; cassette dosing, free drug): high total clearance | MRTiv [2, 14]: 0.31 h | BA ([2]; IV 0.1 mg/kg, PO 1 mg/kg): 13.5% | MRTpo ([2]; PO 1 mg/kg, 5 mL/kg (5-in-One)): 1.07 h | AUC [2, 15]: 17.8 ng·h/mL | concentration at 5 min [2, 16]: 66.4 ng/mL | clearance [2, 16]: 96.5 mL/min/kg | Vd [2, 16]: 1.78 L/kg | Cmax [2, 17]: 17.1 ng/mL | AUC [2, 18]: 24 ng·h/mL | Tmax ([2]; in vivo, PO 1 mg/kg, 5 mL/kg (5-in-One), read-out: Tmax): 0.42 h | MRTiv [3, 14]: 0.42 h | BA ([3]; IV 0.1 mg/kg, PO 1 mg/kg): 5.9% | MRTpo ([3]; PO 1 mg/kg, 5 mL/kg (5-in-One)): 2.1 h | AUC [3, 15]: 45.1 ng·h/mL | concentration at 5 min ([3]; in vivo, IV 0.1 mg/kg, 1 mL/kg (10-in-One), read-out: C5min): 114 ng/mL | clearance ([3]; in vivo, IV 0.1 mg/kg, 1 mL/kg (10-in-One), read-out: Cltotal (converted)): 37 mL/min/kg | Vd ([3]; in vivo, IV 0.1 mg/kg, 1 mL/kg (10-in-One), read-out: VDss): 0.932 L/kg | Cmax [3, 17]: 11.8 ng/mL | Tmax [3, 17]: 0.5 h | AUC [3, 18]: 26.9 ng·h/mL | PI3Kα inhibition in biochemical assay (in words) (PI3Kα): potent inhibitor | IC50 (PI3Kα; Table 1, read-out: PI3Kα (IC50)): < 0.1 µM | IC50 (PI3Kα; [13]): < 0.1 µM | IC50 (PI3Kα; refers to Table 5, read-out: PI3Kα inhibitor in biochemical assays): < 0.1 µM | Nanoparticle drug load, % [4]: 22%
SMILES: Cc1nc(NC(=O)N2CCC[C@H]2C(N)=O)sc1-c1cc(C(C)(C)C(F)(F)F)oc(=O)c1 [Compound (14)]
efficacy in PI3K cellular assays (PI3K): (+++) | PI3K cellular activity (PI3K): (+++)***

IC50 (PI3Kα; [12]): < 0.1 µM
SMILES: Cc1nc(NC(=O)N2CCC[C@H]2C(N)=O)sc1-c1ccnc(C(C)(C)C(=O)OC2CCOC2=O)c1 (some centres unmarked) [Compound (1)]

PI3Kα inhibition in biochemical assay (in words) (PI3Kα): good intrinsic PI3Kα potency | IC50 (PI3Kα; [11]): < 0.1 µM
SMILES: CCOC(=O)[C@@H]1CCN(C(=O)Nc2nc(C)c(-c3ccnc(C(C)(C)C(F)(F)F)c3)s2)[C@@H]1C(N)=O [Compound (20)]

MRTiv [2, 14]: 1.12 h | BA ([2]; IV 0.1 mg/kg, PO 1 mg/kg): 71.2% | MRTpo ([2]; PO 1 mg/kg, 5 mL/kg (5-in-One)): 2.12 h | Tmax ([2]; PO 1 mg/kg, 5 mL/kg (5-in-One)): 1 h | AUC [2, 15]: 73.9 ng·h/mL | concentration at 5 min [2, 16]: 56.4 ng/mL | clearance [2, 16]: 22.9 mL/min/kg | Vd [2, 16]: 1.54 L/kg | Cmax [2, 17]: 184 ng/mL | AUC [2, 18]: 526 ng·h/mL | Nanoparticle drug load, % [4]: 22%
SMILES: Cc1nc(NC(=O)N2CCC[C@H]2C(N)=O)sc1-c1ccnc(C(C)(C)C(F)(F)F)c1 [BYL719, alpelisib, reference compound]
antitumor activity in Cal-33 (Cal-33 xenografts): no appreciable antitumor activity | serum glucose and insulin levels after chronic treatment [5]: Significantly elevated | antitumor activity in H22 [6]: transient delay of tumor growth followed by acquired insensitivity to the treatment | serum glucose levels [7]: spike | serum insulin levels ([7]; within 24 hours): spike | observed half-life in humans [8]: 11.5 h | inhibition of S6 phosphorylation in tumor [9]: strong albeit transient inhibition | PI3K cellular activity (PI3K): (+++)*** | BA ([10]; 15 mg/kg PO): 58% | Cltotal [10]: 10 mL/min/kg | MRTiv [10]: 2.9 h | VDss [10]: 1.9 L/kg

IC50 (PI3Kα; [13]): < 0.5 µM
SMILES: Cc1cc(-c2sc(NC(=O)N3CCC[C@H]3C(N)=O)nc2C)cc(=O)o1 [Compound (15)]

IC50 (PI3Kα; [12]): < 0.1 µM
SMILES: COC(=O)c1cc(-c2sc(NC(=O)N3CCC[C@H]3C(N)=O)nc2C)ccn1 [Compound (9)]

PI3Kα inhibition in biochemical assay (in words) (PI3Kα): active | IC50 (PI3Kα; [13]): < 0.1 µM
SMILES: CCOC(=O)[C@@H]1C[C@@H](C(N)=O)N(C(=O)Nc2nc(C)c(-c3cc(C(C)(C)C(F)(F)F)oc(=O)c3)s2)C1 [Compound (11)]

IC50 (PI3Kα; [12]): < 0.1 µM
SMILES: CCOC(=O)C1(c2cc(-c3sc(NC(=O)N4CCC[C@H]4C(N)=O)nc3C)ccn2)CC1 [Compound (5)]

SMILES: Cn1cnc2c(F)c(Nc3ccc(Br)cc3F)c(C(=O)NOCCO)cc21 [MEK162]
pERK inhibition in the skin (ERK phosphorylation; 4 and 24 hours): phosphorylation returned in both tissues after 24 hours | pERK inhibition in the tumor (ERK phosphorylation; after 24 hours): phosphorylation returned in both tissues after 24 hours
